The values that follow come from patent US20120052010A1, “IMAGING TUMOR PERFUSION, OXIDATIVE […] DYNAMIC ACE PET IN PATIENTS WITH HEAD AND NECK CANCER DURING RADIOTHERAPY” (GE HEALTHCARE LIMITED, priority 2009, published 2012).

Data set [1] has as its system primary tumor, squamous cell carcinoma of the head and neck. In words: FDG-PET tumor glucose uptake (Tglu). Format: in vivo, human. As to the method:
FDG-PET was performed at baseline using a standard clinical whole-body protocol, in which the head and neck area was scanned one hour after intravenous injection of 5 MBq/kg body weight FDG. Baseline ACE and FDG scans were performed on the same or adjacent days.
Whole-body scanning was performed one hour after intravenous injection of 5 MBq/kg body weight FDG. Six patients were examined by PET/CT and four patients were studied by PET alone. The patients were instructed to remain recumbent and avoid voicing and other uses of neck muscles during the uptake period.
Tumor glucose uptake (Tglu) was measured from the FDG data as standard uptake values (SUV), determined by the radioactivity concentration of the tumor ROI, divided by injected activity per gram body weight.

For data set [2] the following is noted: resting normal volunteers, myocardial O2 consumption 3-4 micromole/min/gram; cited from earlier work.
Data set [3] deals with primary tumor, squamous cell carcinoma of the head and neck. Briefly: Dynamic ACE PET, tumor clearance rate of [11C] (tumor oxidative metabolism, OXm). The data set is classed as in vivo, human. As to the method:
Twenty nine dynamic ACE PET scans were performed in the nine patients. Five patients were scanned with a dedicated PET device (Siemens ECAT HR^+, Knoxyille, Tenn., USA) and PET images were coregistered to dose-planning CT images for anatomical localization. Four patients were scanned with a hybrid PET-CT device (GE Discovery ST, Milwaukee, Wis., USA). ACE PET was studied in all patients within 7 days before the start of radiotherapy (baseline). Due to logistic problems not all patients could be scanned at all subsequent time points. Five patients were scanned after a mean dose of 15 Gy (dose range 9.6-20Gy), 7 patients after a mean dose of 30 Gy (range 24-37Gy) and 8 patients after a mean dose of 55 Gy (range 42-68Gy).
(§1) Ten minutes after the heart scan, the head and neck region was imaged immediately after an intravenous bolus injection of 10 MBq/kg body weight ACE. The scan time was 32 minutes with time frames 12×5 seconds (s), 6×10 s, 4×30 s, 4×60 s, 2×120 s and […].
Primary tumors were clearly visualized in all scans. A time-activity curve (TAC) of the primary tumor was obtained from a region of interest (ROI) delineating the highest uptake in all ACE scans. TACs were analyzed by fitting an exponential curve to the data collected between 4 and 32 min Tumor oxidative metabolism was derived from the below equation.
where Y is the tumor radioactivity (Bq/cc), A is a constant, t is time (min), and OXm is the clearance rate of [^11C] in min^−1. The average R^2 of the fit was 0.93.

Data set [4] has the same test system. Briefly: Dynamic ACE PET, tumor perfusion (absolute extraction rate and relative perfusion index rF). Format: in vivo, human. The procedure:
In a subset of ACE scan sessions (n=23) an image-derived arterial input function for absolute quantification of tumor perfusion was acquired by dynamic imaging of the heart immediately after injection of a 0.5 MBq/kg body weight ACE bolus.
as §1
The arterial blood input function was derived by placing a small ROI in the left ventricular cavity of the heart scan to obtain a TAC of the first pass of the bolus. Arterial blood activities were integrated by the area-under-the-curve of the first bolus passage through the chamber and normalized to the injected dose of the subsequent tumor scan.
The peak activity of the primary tumor deposited at the end of the first bolus pass was assessed. The absolute extraction rate (in mL/min/mL tissue) was calculated by dividing the first-pass peak tumor activity by the arterial blood integral, assuming that systemic circulation was unaltered between the heart and tumor scan. As the arterial input was not obtained in all sessions, a relative perfusion index (rF) was quantified by the ratio of initial peak retention in the tumor to that of the cerebellum. […] Absolute quantification of tumor perfusion in 23 scans yielded a mean of 0.47±0.01 mL/min/mL The mean of simultaneous rF measurements was 5.87±0.39 and the two methods were linearly correlated (r=0.57, p=0.005).

“And” between values parts separate entries of the source, which are not always exact repeats. Identical values can stand only once.

With `OC[C@H]1OC(O)[C@H]([18F])[C@@H](O)[C@@H]1O` (stereo partly drawn) [FDG, ^18F-fluoro-2-deoxy-D-glucose], the “Tglu (tumor glucose uptake, standard uptake value)” value in data set [1] (individual patients, baseline FDG-PET, one hour after i.v. 5 MBq/kg FDG) is 4.6 SUV and 13.4 SUV and 8.5 SUV and 6.8 SUV and 4.9 SUV and 16.3 SUV and 13.8 SUV and 3.9 SUV and 26.1 SUV. Also, in data set [1] (nine patients, baseline), the “Tglu, all primary tumors” value is on record as 10.9±2.4 SUV.
Take `C[11C](=O)O` [ACE, 1-[^11C]-Acetate]: the “OXm values in myocardium” value in data set [2] was 0.05 to 0.07 min⁻¹. For the same compound, the “OXm, Mean ± SE” value was 0.0142 min⁻¹ in data set [3] (CR group, 15 Gy, N=4); 0.0144 min⁻¹ in data set [3] (CR group, 30 Gy, N=4); 0.0140 min⁻¹ in data set [3] (CR group, 55 Gy, N=5); 0.0122 min⁻¹ in data set [3] (CR group, Baseline, N=6); 0.0126 min⁻¹ in data set [3] (PR group, 30 Gy, N=3); 0.0110 min⁻¹ in data set [3] (PR group, 55 Gy, N=3). Moreover, the “OXm, Mean ± SE” value in data set [3] (PR group, Baseline, N=3) was found to be 0.0065 min⁻¹. For the same compound, in data set [4] (23 scans with absolute quantification), the “mean of simultaneous rF measurements” value is given as 5.87±0.39. In addition, in data set [4] (23 scans, arterial input from left ventricular blood pool imaging), the “absolute quantification of tumor perfusion (absolute ACE extraction rate), mean” value is 0.47 mL/min/mL and 0.47±0.01 mL/min/mL. For the same compound, the “rF, Mean ± SE” value in data set [4] (CR group, 15 Gy) stood at 7.87; in data set [4] (CR group, 30 Gy), 7.29; in data set [4] (CR group, 55 Gy), 5.00; in data set [4] (CR group, Baseline) it was 5.68; in data set [4] (PR group, 30 Gy) it was 6.61; in data set [4] (PR group, 55 Gy) it was 4.51. The “rF, Mean ± SE” value in data set [4] (PR group, Baseline) amounted to 6.42. For the same compound, in data set [4] (all patients), the “extraction rate in cerebellum (reference region)” value was determined as 0.08±0.03 mL/min/mL. The “primary tumor rF (relative perfusion)” value in data set [4] (individual patients (CR and PR), 15 Gy) was 6.93 and 5.00 and 8.22 and 7.07 and 9.25; in data set [4] (individual patients (CR and PR), 30 Gy), 8.51 and 7.39 and 8.48 and 3.95 and 8.06 and 6.54 and 6.05; in data set [4] (individual patients (CR and PR), 55 Gy) it was 5.78 and 5.00 and 6.34 and 2.20 and 2.81 and 7.76 and 3.64. In addition, in data set [4] (individual patients (CR and PR), Baseline), the “primary tumor rF (relative perfusion, tumor/cerebellum initial peak retention)” value was 4.10 and 7.63 and 6.47 and 5.17 and 6.26 and 4.90 and 3.96 and 5.91 and 8.93.
